SMILES strings stand for the structures. “And” between values parts separate entries of the source, which are not always exact repeats. Equal entries are not always repeated.

Assay [1] deals with T1, AaegOR6 (Aedes aegypti, UniProt A0A1S4G757).
T1 sequence (A0A1S4G757 1-398): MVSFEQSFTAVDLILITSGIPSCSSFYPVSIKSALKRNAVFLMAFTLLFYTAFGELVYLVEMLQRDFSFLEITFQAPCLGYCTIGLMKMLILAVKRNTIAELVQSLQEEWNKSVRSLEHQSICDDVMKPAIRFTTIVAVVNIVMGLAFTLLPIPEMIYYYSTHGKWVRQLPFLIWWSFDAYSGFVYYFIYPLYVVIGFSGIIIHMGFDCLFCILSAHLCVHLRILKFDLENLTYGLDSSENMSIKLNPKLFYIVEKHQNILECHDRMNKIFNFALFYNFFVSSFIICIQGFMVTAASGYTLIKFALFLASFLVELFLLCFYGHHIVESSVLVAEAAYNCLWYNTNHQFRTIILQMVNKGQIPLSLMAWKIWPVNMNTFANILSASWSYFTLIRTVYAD
T1 sequence (Q178U6 1-478 partner): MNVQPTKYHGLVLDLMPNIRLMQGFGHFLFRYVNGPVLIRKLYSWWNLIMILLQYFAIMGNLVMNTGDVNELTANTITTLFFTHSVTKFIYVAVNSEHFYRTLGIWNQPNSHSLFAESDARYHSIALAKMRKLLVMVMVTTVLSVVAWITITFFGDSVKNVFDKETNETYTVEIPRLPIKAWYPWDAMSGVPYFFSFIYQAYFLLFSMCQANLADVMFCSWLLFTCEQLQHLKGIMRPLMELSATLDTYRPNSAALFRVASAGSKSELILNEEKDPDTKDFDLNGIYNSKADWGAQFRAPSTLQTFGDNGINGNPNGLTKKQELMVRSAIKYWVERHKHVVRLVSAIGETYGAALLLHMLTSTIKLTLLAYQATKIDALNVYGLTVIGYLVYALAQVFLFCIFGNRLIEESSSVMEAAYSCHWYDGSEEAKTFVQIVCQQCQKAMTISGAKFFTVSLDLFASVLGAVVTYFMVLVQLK
Briefly: Two-electrode voltage clamp of Xenopus laevis oocytes expressing AaegOR6/Orco (blends, unitary compounds, concentration-response). It counts as cell-based. The following applies: Indoles 2 unitary compounds. From the text:
(§1) The coding regions of ten AaegOR genes of interest (S3 File) and AaegOrco were synthesized by Twist Bioscience (San Francisco, CA, USA) and cloned into the pENTR plasmid. The Gateway LR directional cloning system (Invitrogen Corp., Carlsbad, CA, USA) was utilized to subclone AaegOR coding regions into the pSP64t-RFA oocyte expression plasmid. Plasmids were purified using the GeneJet Plasmid Miniprep Kit (ThermoFisher Scientific, Waltham, MA, USA). Purified plasmids were sequenced in both directions to confirm coding regions.
(§2) Chemical compounds (S6 File) used in the deorphanization of AaegORs were purchased from Acros Organics (Morris, NJ, USA), Alfa Aesar (Ward Hill, MA, USA), and ThermoFisher Scientific (Waltham, MA, USA) at the highest purity available. Compounds were stored as 1M stocks in 100% DMSO. Serial dilutions of each compound were prepared in 10% DMSO and blended by chemical class.
(§3) pSP64t-RFA: AaegOR clones were linearized using Xbal, and cRNAs were synthesized using the mMESSAGE mMACHINE ® SP6 kit (Life Technologies, Carlsbad, CA, USA). Xenopus laevis stage V-VII oocytes purchased from Xenopus1 (Dexter, MI, USA) were stored at 18°C in Incubation medium (ND96 96 with 5% dialyzed horse serum, 50μg/mL gentamycin, 100μg/mL streptomycin, 100μg/mL penicillin, and 550μg/mL sodium pyruvate). 30nL of cRNA was injected into multiple oocytes using a microinjection syringe pump (World Precision Instruments, Sarasota, FL, USA) maintained at 18°C for 48–72 hrs. Odorant blends were perfused across individual oocytes for 10–15 seconds, held at a resting membrane potential of -80 mV using an OC-725C oocyte clamp (Warner Instruments, LLC, Hamden, CT, USA). Induced currents were measured indirectly using the two-electrode voltage clamp technique (TEVC). Following each stimulus, currents were allowed to return to baseline before further stimulation. Data was captured using the Digidata 1550 B digitizer and PClamp10 software (Molecular Devices, San Jose, CA, USA). Concentration-response curves were generated by perfusing unitary odorants over oocytes at increasing concentrations from [10^-3M] to [10^-9M]. Data were analyzed using GraphPad Prism 8 (GraphPad Software Inc., La Jolla, CA, USA). At least two biological replicates were conducted at each concentration and for each compound. Data for at least seven oocytes responding to each compound was analyzed (S7 File).

Assay [2] deals with T2, AaegOR71 (Aedes aegypti, UniProt A0A3S7SHD4).
T2 sequence (A0A3S7SHD4 1-415): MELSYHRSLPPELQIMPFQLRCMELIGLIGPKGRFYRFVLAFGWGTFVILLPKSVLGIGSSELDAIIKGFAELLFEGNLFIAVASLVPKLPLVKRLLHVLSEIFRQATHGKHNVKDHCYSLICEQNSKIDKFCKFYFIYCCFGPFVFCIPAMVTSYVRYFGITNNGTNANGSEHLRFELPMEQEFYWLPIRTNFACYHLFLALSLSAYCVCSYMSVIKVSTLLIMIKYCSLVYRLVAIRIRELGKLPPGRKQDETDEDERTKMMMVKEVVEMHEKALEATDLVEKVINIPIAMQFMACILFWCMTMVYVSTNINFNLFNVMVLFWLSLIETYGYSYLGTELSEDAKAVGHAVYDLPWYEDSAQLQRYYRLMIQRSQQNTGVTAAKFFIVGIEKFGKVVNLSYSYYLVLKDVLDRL
T2 sequence (Q178U6 1-478 partner): T1 sequence (Q178U6 1-478 partner)
Briefly: Two-electrode voltage clamp of Xenopus laevis oocytes expressing AaegOR71/Orco (blends, unitary compounds, concentration-response). To be noted: for Raw Data (Response in nA) Oocyte 1 / Raw Data (Response in nA) Oocyte 2 / Raw Data (Response in nA) Oocyte 3 / Raw Data (Response in nA) Oocyte 4 / Raw Data (Response in nA) Oocyte 5 / Raw Data (Response in nA) Oocyte 6 / Raw Data (Response in nA) Oocyte 7 / Raw Data (Response in nA) Oocyte 8: Indoles 2 unitary compounds; for Raw Data (Response in nA): concentration-response, Oocytes 1-8 individually. It counts as cell-based.
Description: as §1, §2, §3

In the case of `O=Cc1ccnc2ccccc12` [4-quinolinecarboxaldehyde, 4-Quinolinecarboxaldehyde], in assay [1], the “Raw data (Responses in nA) Oocyte 1” value was found to be 0.0 nA, the “Raw data (Responses in nA) Oocyte 2” value is reported as 0.0 nA, the “Raw data (Responses in nA) Oocyte 3” value turned out to be 0.0 nA and the “Raw data (Responses in nA) Oocyte 4” value worked out at 0.0 nA. For the same compound, in assay [1], the “Raw data (Responses in nA) Oocyte 5” value amounted to 0.0 nA, the “Raw data (Responses in nA) Oocyte 6” value is listed as 0.0 nA, the “Raw data (Responses in nA) Oocyte 7” value came to 0.0 nA and the “Raw data (Responses in nA) Oocyte 8” value is 0.0 nA. Moreover, the EC50 in assay [2] (AaegOR71/Orco expressing oocytes, TEVC, concentration-response of normalized current) is ~960 nM and 960 nM. In assay [2], the “Raw Data (Response in nA) Oocyte 1” value is 1070 nA, the “Raw Data (Response in nA) Oocyte 2” value is reported as 2930 nA, the “Raw Data (Response in nA) Oocyte 3” value was determined as 590 nA and the “Raw Data (Response in nA) Oocyte 4” value came out at 1710 nA. In addition, in assay [2], the “Raw Data (Response in nA) Oocyte 5” value is on record as 390 nA, the “Raw Data (Response in nA) Oocyte 6” value came out at 930 nA, the “Raw Data (Response in nA) Oocyte 7” value is given as 330 nA and the “Raw Data (Response in nA) Oocyte 8” value is given as 410 nA. In addition, in assay [2] (first series, 1e-9 M), the “Raw Data (Response in nA)” value was 10 nA (2×) and 0 nA (5×) and 30 nA. For the same compound, the “Raw Data (Response in nA)” value in assay [2] (first series, 5e-9 M) was 30 nA (2×) and 10 nA (2×) and 20 nA and 0 nA and 5 nA (2×). Further, the “Raw Data (Response in nA)” value in assay [2] (first series, 1e-8 M) is 60 nA (2×) and 15 nA and 30 nA and 25 nA and 5 nA and 10 nA (2×). Moreover, the “Raw Data (Response in nA)” value in assay [2] (first series, 5e-8 M) was 140 nA and 35 nA and 70 nA and 25 nA (2×) and 110 nA and 10 nA and 30 nA. Further, the “Raw Data (Response in nA)” value in assay [2] (first series, 1e-7 M) is 200 nA and 50 nA (3×) and 120 nA and 30 nA (2×) and 190 nA. Moreover, the “Raw Data (Response in nA)” value in assay [2] (first series, 5e-7 M) is 500 nA and 150 nA and 320 nA and 90 nA (2×) and 380 nA and 100 nA and 120 nA. Besides, the “Raw Data (Response in nA)” value in assay [2] (first series, 1e-6 M) was 620 nA and 180 nA and 410 nA and 125 nA and 470 nA and 140 nA and 150 nA (2×). Also, in assay [2] (second series (unlabelled), 5e-9 M), the “Raw Data (Response in nA)” value was 8.84 nA and 16 nA and 25 nA and 15 nA (2×) and 5 nA (2×) and 0 nA. In assay [2] (second series (unlabelled), 1e-8 M), the “Raw Data (Response in nA)” value is 20 nA (3×) and 40 nA (2×) and 60 nA and 150 nA and 30 nA. In assay [2] (second series (unlabelled), 5e-8 M), the “Raw Data (Response in nA)” value was 40 nA (4×) and 80 nA and 100 nA and 160 nA and 20 nA. In assay [2] (second series (unlabelled), 1e-7 M), the “Raw Data (Response in nA)” value is 60 nA (3×) and 120 nA (2×) and 190 nA and 40 nA and 50 nA. Further, the “Raw Data (Response in nA)” value in assay [2] (second series (unlabelled), 5e-7 M) was 140 nA and 240 nA and 260 nA and 110 nA and 80 nA (2×) and 300 nA and 50 nA. Further, the “Raw Data (Response in nA)” value in assay [2] (second series (unlabelled), 1e-6 M) is 180 nA and 290 nA (2×) and 140 nA.
Turning to `Nc1cccc2cnccc12` [5-Aminoisoquinoline], in assay [1], the “Raw data (Responses in nA) Oocyte 1” value is recorded as 0.0 nA, the “Raw data (Responses in nA) Oocyte 2” value is listed as 0.0 nA, the “Raw data (Responses in nA) Oocyte 3” value is reported as 0.0 nA and the “Raw data (Responses in nA) Oocyte 4” value amounted to 0.0 nA. Moreover, in assay [1], the “Raw data (Responses in nA) Oocyte 5” value was 0.0 nA, the “Raw data (Responses in nA) Oocyte 6” value was 0.0 nA, the “Raw data (Responses in nA) Oocyte 7” value is 0.0 nA and the “Raw data (Responses in nA) Oocyte 8” value is on record as 0.0 nA. In assay [2], the “Raw Data (Response in nA) Oocyte 1” value is given as 130 nA, the “Raw Data (Response in nA) Oocyte 2” value is 200 nA, the “Raw Data (Response in nA) Oocyte 3” value was found to be 40 nA and the “Raw Data (Response in nA) Oocyte 4” value is recorded as 40 nA. For the same compound, in assay [2], the “Raw Data (Response in nA) Oocyte 5” value turned out to be 0 nA, the “Raw Data (Response in nA) Oocyte 6” value amounted to 10 nA, the “Raw Data (Response in nA) Oocyte 7” value is recorded as 0 nA and the “Raw Data (Response in nA) Oocyte 8” value is on record as 10 nA.
For the compound `O=C1Nc2ccccc2C1=O` [Isatin], in assay [1], the “Raw data (Responses in nA) Oocyte 1” value was found to be 0.0 nA, the “Raw data (Responses in nA) Oocyte 2” value came out at 0.0 nA, the “Raw data (Responses in nA) Oocyte 3” value amounted to 10.0 nA and the “Raw data (Responses in nA) Oocyte 4” value worked out at 0.0 nA. Also, in assay [1], the “Raw data (Responses in nA) Oocyte 5” value worked out at 0.0 nA, the “Raw data (Responses in nA) Oocyte 6” value came out at 0.0 nA, the “Raw data (Responses in nA) Oocyte 7” value turned out to be 0.0 nA and the “Raw data (Responses in nA) Oocyte 8” value was found to be 0.0 nA. Also, in assay [2], the “Raw Data (Response in nA) Oocyte 1” value is 150 nA, the “Raw Data (Response in nA) Oocyte 2” value came out at 0 nA, the “Raw Data (Response in nA) Oocyte 3” value was 0 nA and the “Raw Data (Response in nA) Oocyte 4” value was found to be 0 nA. Also, in assay [2], the “Raw Data (Response in nA) Oocyte 5” value is on record as 0 nA, the “Raw Data (Response in nA) Oocyte 6” value is reported as 0 nA, the “Raw Data (Response in nA) Oocyte 7” value is on record as 10 nA and the “Raw Data (Response in nA) Oocyte 8” value amounted to 0 nA.
Take `O=C1Cc2ccccc2N1` [Oxindole]: in assay [1], the “Raw data (Responses in nA) Oocyte 1” value is reported as 0.0 nA, the “Raw data (Responses in nA) Oocyte 2” value is reported as 0.0 nA, the “Raw data (Responses in nA) Oocyte 3” value is reported as 0.0 nA and the “Raw data (Responses in nA) Oocyte 4” value turned out to be 0.0 nA. Further, in assay [1], the “Raw data (Responses in nA) Oocyte 5” value was determined as 0.0 nA, the “Raw data (Responses in nA) Oocyte 6” value was 0.0 nA, the “Raw data (Responses in nA) Oocyte 7” value is recorded as 0.0 nA and the “Raw data (Responses in nA) Oocyte 8” value was 10.0 nA. For the same compound, in assay [2], the “Raw Data (Response in nA) Oocyte 1” value turned out to be 0 nA, the “Raw Data (Response in nA) Oocyte 2” value is given as 20 nA, the “Raw Data (Response in nA) Oocyte 3” value amounted to 0 nA and the “Raw Data (Response in nA) Oocyte 4” value is 10 nA. For the same compound, in assay [2], the “Raw Data (Response in nA) Oocyte 5” value stood at 0 nA, the “Raw Data (Response in nA) Oocyte 6” value came out at 10 nA, the “Raw Data (Response in nA) Oocyte 7” value came to 5 nA and the “Raw Data (Response in nA) Oocyte 8” value was 20 nA.

The record behind these values is PMC11073699, “Odorant receptors for floral- and plant-derived volatiles in the yellow fever mosquito, Aedes aegypti (Diptera: Culicidae)” (PLOS ONE, 2024).
